We go through 17 compounds from patent publication US8148388B2, “2,4 (4,6) pyrimidine derivatives” (Janssen Pharmaceutica, N.V., priority 2004, dated 2012).

Read-outs that look alike come from different tables or passages of the source. Bounds are passed on as bounds.

For one data set, the target named is Fes (h) (Homo sapiens, UniProt P07332). Kind of data set: Fes human kinase assay (glass-fiber filter). The note with it: test concentration of 10^−6M; read-out: C4 score (inhibition of Fes human). The data set is classed as biochemical. An outline of the steps:
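Human Fes (5–10 mU) was incubated with 0.1 mg/ml poly(Glu,Tyr) 4:1 in 8 mM MOPS pH 7.0, 0.2 mM EDTA, 10 mM Mg acetate and [γ-33P]ATP for 40 min at room temperature. The reaction was stopped with phosphoric acid, and substrate phosphorylation was quantified by filter binding and scintillation counting.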

Another data set addresses Abl (h) (Homo sapiens, UniProt P00519). Description: Abl human kinase assay (glass-fiber filter). Format: biochemical. The note with it: test concentration of 10^−6M; read-out: C1 score (inhibition of Abl human).
A further data set has as its target Yes (h) (Homo sapiens, UniProt P07947). Kind of data set: Yes human kinase assay (glass-fiber filter). Format: biochemical. The note with it: test concentration of 10^−6M; read-out: C11 score (inhibition of Yes human). An outline of the steps:
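Yes (h) (5-10 mU) with 0.1 mg/ml poly(Glu, Tyr) 4:1 in 8 mM MOPS pH 7.0, 0.2 mM EDTA, 10 mM MgAcetate and [γ-^33P-ATP], 40 minutes at room temperature. Stopped with phosphoric acid; substrate-bound ^33P counted on glass-fiber filter by scintillation.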

Another data set concerns the target Flt3 (h) (Homo sapiens, UniProt P36888). Description: Flt3 human kinase assay (glass-fiber filter). The note with it: test concentration of 10^−6M; read-out: C6 score (inhibition of Flt3 human). The data set is classed as biochemical. An outline of the steps:
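Human Flt3 (5-10 mU) with 50 μM peptide substrate in 8 mM MOPS pH 7.0, 0.2 mM EDTA, 10 mM Mg acetate and [γ-33P]ATP (concentration as required), 40 min at room temperature. Reaction stopped with phosphoric acid; substrate 33P incorporation counted on P30 glass-fiber filter.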

The target in the next data set is Lck (h) (Homo sapiens, UniProt P06239). Kind of data set: Lck human kinase assay (glass-fiber filter). Format: biochemical. The note with it: test concentration of 10^−6M; read-out: C9 score (inhibition of Lck human). An outline of the steps: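 Kinase activity measured as transfer of (^33P) from radiolabeled MgATP to substrate, captured on P30 glass-fiber filtermat, washed in 75 mM phosphoric acid and methanol, then scintillation counted.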

In a further data set the target is Fms (h) (Homo sapiens, UniProt P07333). Description: Fms human kinase assay (glass-fiber filter). The note with it: test concentration of 10^−6M; read-out: C7 score (inhibition of Fms human). Format: biochemical. An outline of the steps:
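Radiometric filter-binding assay: Fms (5-10 mU) with 250 μM peptide substrate and [γ-33P]ATP in 8 mM MOPS pH 7.0, 10 mM Mg acetate, 40 min at room temperature. Reaction stopped with phosphoric acid; substrate-bound 33P counted on P30 filtermat.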

The next data set has as its target cSRC (h) (Homo sapiens, UniProt P12931). Description: cSRC human kinase assay (glass-fiber filter). The note with it: test concentration of 10^−6M; read-out: C3 score (inhibition of cSRC human). Format: biochemical. An outline of the steps: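 Radiometric assay: kinase and substrate are incubated with [33P]ATP, with the reaction started by MgATP mix. The reaction is spotted on P30 filtermat, washed in 75 mM phosphoric acid and methanol, and the bound 33P is measured by scintillation counting.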

The next data set has as its target Lyn (h) (Homo sapiens, UniProt P07948). Description: Lyn human kinase assay (glass-fiber filter). The data set is classed as biochemical. The note with it: test concentration of 10^−6M; read-out: C10 score (inhibition of Lyn human). An outline of the steps: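 Human Lyn (5-10 mU) phosphorylating poly(Glu,Tyr) 4:1 at 0.1 mg/ml with [γ-33P]ATP (concentration as required) in 50 mM Tris pH 7.5, 10 mM Mg acetate, 40 min at room temperature. Stopped with phosphoric acid; substrate-bound radioactivity counted on glass-fibre filter.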

The target of another data set is ErbB2 (h) (Homo sapiens, UniProt P04626). Kind of data set: ErbB2 human kinase assay (filter). Format: biochemical. The note with it: read-out: C13 ERBB 2 Filter Score. Here is the method:
(§1) Similarly to the above the in vitro inhibition of two other kinases, i.e. human ErbB2 and human ErbB4 was tested for some of the compounds according to the invention.
(§2) In a final reaction volume of 25 μl, ErbB2 (h) (5-10 mU) is incubated with 8 mM MOPS pH 7.0, 0.2 mM EDTA, 10 mM MnCl2, 0.1 mg/ml poly(Glu, Tyr) 4:1, 10 mM MgAcetate and [γ-33P-ATP] (specific activity approx. 500 cpm/pmol, concentration as required). The reaction is initiated by the addition of the MgATP mix. After incubation for 40 minutes at room temperature, the reaction is stopped by the addition of 5 μl of a 3% phosphoric acid solution. 10 μl of the reaction is then spotted onto a Filtermat A and washed three times for 5 minutes in 75 mM phosphoric acid and once in methanol prior to drying and scintillation counting.

The target in the next data set is ErbB4 (h) (Homo sapiens, UniProt Q15303). Description: ErbB4 human kinase assay (filter). Format: biochemical. The note with it: read-out: C14 ERBB 4 Filter Score. As for the experimental part: as §1
as §2, with “ErbB4” for “ErbB2”

For a further data set, the target named is T1, EGFR-kinase domain (Homo sapiens, UniProt P00533).
T1 construct: 0.5 μg EGFR-kinase domain/well
Kind of data set: In vitro inhibition of EGFR (Flash Plate assay). The data set is classed as biochemical. The note with it: full dose response 1.10^−6M to 1.10^−10M, read-out: C12 EGFR flash Score. Here is the method:
The in vitro inhibition of EGFR was assessed using either the Flash Plate technology or the glass-fiber filter technology as described by Davies, S. P. et al., Biochem J. (2000), 351; p. 95-105. The Flash Plate technology is generally described by B. A. Brown et al. in High Throughput Screening (1997), p. 317-328. Editor(s): Devlin, John P. Publisher: Dekker, New York, N.Y.
In the Flash Plate EGFR kinase reaction assay, a kinase substrate consisting of biotinylated poly(L-glutamic acid-L-tyrosine) (poly(GT)biotin), is incubated with the aforementioned protein in the presence of (^33P) radiolabeled ATP. (^33P) phosphorylation of the substrate is subsequently measured as light energy emitted using a streptavidin-coated Flash Plate (PerkinElmer Life Sciences) by trapping and quantifying the binding of the biotin tagged and radiolabeled substrate.
The EGFR kinase reaction is performed at 30° C. for 60 minutes in a 96-well microtiter FlashPlate (PerkinElmer Life Sciences). For each of the tested compounds a full dose response 1.10^−6M to 1.10^−10M has been performed. IRESSA® and Tarceva™ (erlotinib) were used as reference compounds. The 100 μl reaction volume contains 54.5 mM TrisHCl pH 8.0, 10 mM MgCl2, 100 μM Na3VO4, 5.0 μM unlabeled ATP, 1 mM DTT, 0.009% BSA, 0.8 μCi AT^33P, 0.35 μg/well poly(GT)biotin and 0.5 μg EGFR-kinase domain/well.
The reaction is stopped by aspirating the reaction mixture and washing the plate 3× with 200 μl wash/stop buffer (PBS+100 mM EDTA). After the final wash step 200 μl of wash/stop buffer was added to each well and the amount of phosphorylated (^33P) Poly(GT)biotin determined by counting (30 sec/well) in a microtiterplate scintillation counter.

T1 sequence (P00533 712-979 limits assumed): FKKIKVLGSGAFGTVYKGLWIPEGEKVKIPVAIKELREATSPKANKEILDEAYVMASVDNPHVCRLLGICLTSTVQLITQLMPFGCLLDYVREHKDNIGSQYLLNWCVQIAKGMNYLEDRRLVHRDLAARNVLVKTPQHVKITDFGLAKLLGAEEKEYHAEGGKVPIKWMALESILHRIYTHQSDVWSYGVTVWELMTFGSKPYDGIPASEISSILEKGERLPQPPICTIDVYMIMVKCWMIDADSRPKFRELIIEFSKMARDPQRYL
Sequence of ErbB4 (h) (Q15303 26-1308): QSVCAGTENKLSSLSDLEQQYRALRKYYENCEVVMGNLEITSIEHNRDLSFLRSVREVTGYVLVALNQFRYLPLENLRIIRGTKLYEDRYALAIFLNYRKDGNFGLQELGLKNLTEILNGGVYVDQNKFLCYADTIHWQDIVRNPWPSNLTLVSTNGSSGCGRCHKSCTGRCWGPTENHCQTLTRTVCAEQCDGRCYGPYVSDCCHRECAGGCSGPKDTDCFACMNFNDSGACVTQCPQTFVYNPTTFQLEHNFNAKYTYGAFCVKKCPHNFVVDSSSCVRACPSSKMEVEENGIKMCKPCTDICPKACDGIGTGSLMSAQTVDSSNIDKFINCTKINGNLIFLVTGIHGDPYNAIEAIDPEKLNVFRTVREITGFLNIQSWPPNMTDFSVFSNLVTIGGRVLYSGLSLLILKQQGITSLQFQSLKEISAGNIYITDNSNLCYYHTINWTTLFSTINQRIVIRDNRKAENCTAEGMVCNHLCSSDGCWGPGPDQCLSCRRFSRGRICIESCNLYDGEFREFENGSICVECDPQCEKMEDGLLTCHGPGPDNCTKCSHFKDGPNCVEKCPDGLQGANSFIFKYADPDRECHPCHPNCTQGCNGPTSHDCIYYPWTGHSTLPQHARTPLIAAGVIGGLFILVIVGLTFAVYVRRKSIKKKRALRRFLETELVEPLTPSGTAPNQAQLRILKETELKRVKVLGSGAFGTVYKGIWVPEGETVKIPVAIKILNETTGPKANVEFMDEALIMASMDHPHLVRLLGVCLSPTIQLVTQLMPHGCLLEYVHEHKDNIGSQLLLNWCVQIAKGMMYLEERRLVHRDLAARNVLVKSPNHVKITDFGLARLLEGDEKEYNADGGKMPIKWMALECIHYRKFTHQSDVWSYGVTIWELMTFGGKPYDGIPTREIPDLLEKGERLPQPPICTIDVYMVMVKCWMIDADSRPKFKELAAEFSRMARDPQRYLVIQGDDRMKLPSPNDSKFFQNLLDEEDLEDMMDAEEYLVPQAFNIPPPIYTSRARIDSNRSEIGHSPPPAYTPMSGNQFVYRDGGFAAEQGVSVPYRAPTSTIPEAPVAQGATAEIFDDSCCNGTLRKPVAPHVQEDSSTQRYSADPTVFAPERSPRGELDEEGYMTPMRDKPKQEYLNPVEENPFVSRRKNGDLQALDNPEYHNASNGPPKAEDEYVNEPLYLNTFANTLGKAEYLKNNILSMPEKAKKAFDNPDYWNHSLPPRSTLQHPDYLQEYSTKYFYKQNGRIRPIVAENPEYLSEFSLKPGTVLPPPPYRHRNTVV
Sequence of ErbB2 (h) (P04626 23-1255): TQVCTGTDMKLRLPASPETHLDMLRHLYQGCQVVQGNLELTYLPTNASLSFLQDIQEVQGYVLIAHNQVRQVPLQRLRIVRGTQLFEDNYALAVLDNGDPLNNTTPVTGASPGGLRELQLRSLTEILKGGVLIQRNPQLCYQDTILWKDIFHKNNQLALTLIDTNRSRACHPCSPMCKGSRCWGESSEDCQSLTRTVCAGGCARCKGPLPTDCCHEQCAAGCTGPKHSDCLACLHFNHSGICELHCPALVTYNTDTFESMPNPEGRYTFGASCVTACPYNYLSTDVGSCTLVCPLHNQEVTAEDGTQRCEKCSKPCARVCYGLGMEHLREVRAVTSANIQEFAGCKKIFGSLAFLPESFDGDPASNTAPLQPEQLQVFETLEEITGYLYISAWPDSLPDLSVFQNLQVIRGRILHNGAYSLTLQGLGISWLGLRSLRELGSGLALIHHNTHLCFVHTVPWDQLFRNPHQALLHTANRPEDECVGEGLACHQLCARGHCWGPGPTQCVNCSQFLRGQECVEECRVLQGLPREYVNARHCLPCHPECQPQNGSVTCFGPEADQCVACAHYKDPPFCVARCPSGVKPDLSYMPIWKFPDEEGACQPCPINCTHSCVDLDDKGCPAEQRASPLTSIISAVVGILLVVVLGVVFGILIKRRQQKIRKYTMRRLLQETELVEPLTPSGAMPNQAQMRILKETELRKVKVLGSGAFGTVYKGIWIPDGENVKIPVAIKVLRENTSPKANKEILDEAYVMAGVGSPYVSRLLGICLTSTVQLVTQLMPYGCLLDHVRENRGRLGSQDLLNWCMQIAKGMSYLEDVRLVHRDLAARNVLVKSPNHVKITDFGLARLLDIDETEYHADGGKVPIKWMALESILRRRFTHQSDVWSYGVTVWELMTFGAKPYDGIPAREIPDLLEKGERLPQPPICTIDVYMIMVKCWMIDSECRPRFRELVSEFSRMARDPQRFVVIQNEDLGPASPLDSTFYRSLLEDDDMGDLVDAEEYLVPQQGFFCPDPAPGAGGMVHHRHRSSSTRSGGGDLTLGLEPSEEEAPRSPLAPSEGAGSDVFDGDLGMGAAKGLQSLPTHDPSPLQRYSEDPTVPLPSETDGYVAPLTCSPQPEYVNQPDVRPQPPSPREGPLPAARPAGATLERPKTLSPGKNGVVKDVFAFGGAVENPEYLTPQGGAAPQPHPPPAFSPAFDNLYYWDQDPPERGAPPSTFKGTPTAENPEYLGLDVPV
Sequence of Flt3 (h) (P36888 27-993): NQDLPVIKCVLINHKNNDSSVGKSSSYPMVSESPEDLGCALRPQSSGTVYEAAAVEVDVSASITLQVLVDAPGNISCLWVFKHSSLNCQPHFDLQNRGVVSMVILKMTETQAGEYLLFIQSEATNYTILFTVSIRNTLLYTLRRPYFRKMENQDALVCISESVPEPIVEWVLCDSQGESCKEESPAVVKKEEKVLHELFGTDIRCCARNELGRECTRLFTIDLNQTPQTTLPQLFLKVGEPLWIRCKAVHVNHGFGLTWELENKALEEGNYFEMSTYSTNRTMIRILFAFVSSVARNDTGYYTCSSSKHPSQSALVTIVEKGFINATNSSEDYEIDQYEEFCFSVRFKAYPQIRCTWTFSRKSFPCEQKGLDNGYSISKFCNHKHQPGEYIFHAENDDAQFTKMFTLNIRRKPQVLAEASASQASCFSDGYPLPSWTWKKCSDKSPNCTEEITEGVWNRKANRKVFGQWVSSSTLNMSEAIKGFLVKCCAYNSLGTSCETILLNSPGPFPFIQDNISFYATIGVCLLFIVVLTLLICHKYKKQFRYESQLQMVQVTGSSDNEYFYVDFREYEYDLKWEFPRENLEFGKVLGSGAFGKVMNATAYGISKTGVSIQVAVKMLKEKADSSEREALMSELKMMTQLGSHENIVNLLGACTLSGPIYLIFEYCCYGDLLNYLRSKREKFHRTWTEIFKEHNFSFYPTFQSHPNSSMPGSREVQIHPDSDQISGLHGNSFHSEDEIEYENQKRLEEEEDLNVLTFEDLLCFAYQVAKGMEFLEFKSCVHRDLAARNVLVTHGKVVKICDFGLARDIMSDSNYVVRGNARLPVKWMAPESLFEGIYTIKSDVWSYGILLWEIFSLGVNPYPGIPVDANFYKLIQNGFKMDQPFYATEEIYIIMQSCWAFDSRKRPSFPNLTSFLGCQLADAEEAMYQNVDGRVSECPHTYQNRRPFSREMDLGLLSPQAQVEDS
Sequence of Yes (h) (P07947 whole entry): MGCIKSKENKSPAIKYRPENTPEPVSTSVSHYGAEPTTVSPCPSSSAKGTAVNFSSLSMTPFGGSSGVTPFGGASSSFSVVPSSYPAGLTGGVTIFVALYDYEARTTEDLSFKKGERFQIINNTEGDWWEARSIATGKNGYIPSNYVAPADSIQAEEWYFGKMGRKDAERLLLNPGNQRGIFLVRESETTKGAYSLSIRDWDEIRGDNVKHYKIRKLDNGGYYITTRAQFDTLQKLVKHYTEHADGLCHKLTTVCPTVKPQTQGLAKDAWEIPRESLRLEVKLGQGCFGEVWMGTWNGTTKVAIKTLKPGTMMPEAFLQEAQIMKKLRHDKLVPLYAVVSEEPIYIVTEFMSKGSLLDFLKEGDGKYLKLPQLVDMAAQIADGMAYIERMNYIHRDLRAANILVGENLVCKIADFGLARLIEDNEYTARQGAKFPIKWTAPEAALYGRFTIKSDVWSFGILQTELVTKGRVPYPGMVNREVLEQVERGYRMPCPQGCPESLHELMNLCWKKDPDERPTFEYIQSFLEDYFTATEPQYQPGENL
Sequence of Lyn (h) (P07948 whole entry): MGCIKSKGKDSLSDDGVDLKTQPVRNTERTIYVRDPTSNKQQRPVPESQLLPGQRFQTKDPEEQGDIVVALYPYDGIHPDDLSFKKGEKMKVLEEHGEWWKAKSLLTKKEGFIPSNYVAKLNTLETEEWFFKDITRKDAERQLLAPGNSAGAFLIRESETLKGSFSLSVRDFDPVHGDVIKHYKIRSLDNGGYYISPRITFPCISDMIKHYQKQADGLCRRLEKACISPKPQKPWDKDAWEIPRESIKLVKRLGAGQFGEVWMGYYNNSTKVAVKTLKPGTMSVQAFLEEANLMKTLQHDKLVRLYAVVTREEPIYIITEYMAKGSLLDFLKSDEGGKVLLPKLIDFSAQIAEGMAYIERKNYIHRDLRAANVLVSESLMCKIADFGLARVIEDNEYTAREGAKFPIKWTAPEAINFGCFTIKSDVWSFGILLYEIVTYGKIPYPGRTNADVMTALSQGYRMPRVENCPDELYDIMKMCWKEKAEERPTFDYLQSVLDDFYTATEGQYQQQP

For the compound `COCCOc1ccc2cc1OCCCCCN(C)Cc1cc(F)c(Cl)cc1Nc1cc(ncn1)N2`, the ring closure, yield of all isomers (from COCCOc1ccc(Nc2cc(Nc3cc(Cl)c(F)cc3CN(C)CCCCCO)ncn2)cc1O, ether bond, 1,1'-(azodicarbonyl)dipiperidine (ADDP)/tributylphosphine, THF, 28.6 mM, 25.0 °C, 64.0 h) worked out at 44%.
For `COc1ccc2cc1OCCNC(=O)C(Cc1ccccc1)NCc1cccc(c1)Nc1cc(ncn1)N2` (stereo not drawn), the ring closure, yield of all isomers (from COc1ccc(Nc2cc(Nc3cccc(CNC(Cc4ccccc4)C(=O)O)c3)ncn2)cc1OCCN, amide bond, HBTU, DMF, 3.85 mM, 1.0 h) was 14%.
As to `O=C1COc2cccc(c2)Nc2nccc(n2)Nc2cccc(c2)OCCCCN1` [Compound 4, 14,22-dioxa-2,4,8,19,29-pentaazatetracyclo[21.3.1.1˜3,7˜.1˜9,13˜]nonacosa-1(27),3,5,7(29),9,11,13(28),23,25-nonaen-20-one], the inhibition at 1 µM at Fes (h) is 30 to 60%; at Abl (h), 10 to 30%; at Yes (h) it was 30 to 60%; on Flt3 (h) it was greater than 80%; on Lck (h) it was 30 to 60%; at Fms (h), 60 to 80%. The inhibition at 1 µM was 30 to 60% on cSRC (h) and 10 to 30% on Lyn (h). For the same compound, for the setting “from NCCCCOc1cccc(Nc2ccnc(Nc3cccc(OCC(=O)O)c3)n2)c1, amide bond, HBTU, DMF, 7.67 mM, 25.0 °C, 2.0 h”, the ring closure, yield of all isomers turned out to be 9%.
Compound `N#Cc1cnc2nc1Nc1cccc(c1)C(=O)NCC(=O)NCc1cccc(c1)N2` [Compound 5, 2,4,8,15,18,26-hexaazatetracyclo[18.3.1.1˜3,7˜.1˜9,13˜]hexacosa-1(24),3,5,7(26),9,11,13(25),20,22-nonaene-6-carbonitrile, 14,17-dioxo-] returned a ring closure, yield of all isomers (from N#Cc1cnc(Nc2cccc(CNC(=O)CN)c2)nc1Nc1cccc(C(=O)O)c1, amide bond, HBTU, DMF, 22.5 mM, 25.0 °C, 3.0 h) of 14%. Moreover, the inhibition at 1 µM on Flt3 (h) lay within 10 to 30%.
`O=C1CN2CCN(CC2)Cc2cccc(c2)Nc2cc(ncn2)Nc2cccc(c2)OCCCCCN1` [Compound 112]: the IC50 on ErbB2 (h), on ErbB4 (h) and at EGFR-kinase domain was less than 1000 nM throughout.
In the case of `CN(C)CCCCC1NC(=O)CN(C)Cc2cccc(c2)Nc2cc(ncn2)Nc2cccc(c2)CNC1=O` (stereo not drawn) [Compound 148], the IC50 on ErbB2 (h) is 1000 to 10000 nM; at ErbB4 (h) it was 1000 to 10000 nM; at EGFR-kinase domain, less than 1000 nM.
As for `CC(C)CC1NC(=O)CN(C)Cc2cccc(c2)Nc2cc(ncn2)Nc2cccc(c2)CNC1=O` (stereo not drawn) [Compound 149], the IC50 was 1000 to 10000 nM on ErbB2 (h), less than 1000 nM at ErbB4 (h) and less than 1000 nM on EGFR-kinase domain.
As for `C#CCC1NC(=O)CN(C)Cc2cccc(c2)Nc2cc(ncn2)Nc2cccc(c2)CNC1=O` (stereo not drawn) [Compound 150], the IC50 on ErbB2 (h), at ErbB4 (h) and on EGFR-kinase domain was less than 1000 nM each time.
On to `CN1CC(=O)N2CCC2C(=O)NCc2cccc(c2)Nc2cc(ncn2)Nc2cccc(c2)C1` (stereo not drawn) [Compound 151], for which the IC50 at ErbB2 (h), at ErbB4 (h) and on EGFR-kinase domain was less than 1000 nM each time.
Regarding `CN1CC(=O)NC(CCc2ccccc2)C(=O)NCc2cccc(c2)Nc2cc(ncn2)Nc2cccc(c2)C1` (stereo not drawn) [Compound 152], the IC50 at ErbB2 (h), on ErbB4 (h) and on EGFR-kinase domain was less than 1000 nM in each case.
Regarding `CCN1CCNC(=O)C(Cc2ccc(C(F)(F)F)cc2)NC(=O)CN(C)Cc2cccc(c2)Nc2cc(ncn2)Nc2cccc(c2)C1` (stereo not drawn) [Compound 156], the results for the IC50 on ErbB2 (h), at ErbB4 (h) and on EGFR-kinase domain were 1000 to 10000 nM, less than 1000 nM and less than 1000 nM, respectively.
As to `CN(C)CCCCC1NC(=O)CN(C)Cc2cccc(c2)Nc2cc(ncn2)Nc2cccc(c2)CN2CCN(CC2)C1=O` (stereo not drawn) [Compound 159], the IC50 on ErbB2 (h) was 1000 to 10000 nM; on EGFR-kinase domain, less than 1000 nM.
For the compound `O=C1COc2cccc(c2)Nc2cc(ncn2)Nc2cccc(c2)CCN1` [Compound 160], the IC50 on ErbB2 (h) was 1000 to 10000 nM; on ErbB4 (h), 1000 to 10000 nM; on EGFR-kinase domain it was less than 1000 nM.
Consider `CCN1CCNC(=O)COc2cccc(c2)Nc2cc(ncn2)Nc2cccc(c2)C1` [Compound 161], for which the IC50 on ErbB2 (h) is 1000 to 10000 nM; at ErbB4 (h), less than 1000 nM; on EGFR-kinase domain it was less than 1000 nM.
Consider `COc1ccc2cc1OCCNC(=O)COc1cccc(c1)Nc1cc(ncn1)N2` [Compound 162], for which the figures for the IC50 at ErbB2 (h), at ErbB4 (h) and on EGFR-kinase domain were 1000 to 10000 nM, 1000 to 10000 nM and less than 1000 nM, respectively.
Take `O=C1CN2CCN(CC2)Cc2cccc(c2)Nc2cc(ncn2)Nc2cccc(c2)CCN1` [Compound 164]: the IC50 was 1000 to 10000 nM at ErbB2 (h) and less than 1000 nM at ErbB4 (h).
As to `COc1ccc2cc1OCCCNC(=O)CCN1CCC(CC1)N(C)Cc1ccc(Cl)c(c1)Nc1cc(ncn1)N2` [Compound 216], on ErbB4 (h), the IC50 is 1000 to 10000 nM.

Usually inhibition stands for the share of the control response that was lost under treatment.
